Source: the supplement of paper PMC4862054

How the values were obtained:
Hs578T [1] = settings: 72 h
Procedure: (§1)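 Drug sensitivity and resistance testing (DSRT) of breast cancer cell lines in 384-well plates, 5 concentrations in 10-fold dilutions over a compound-specific 10,000-fold range. After 72 h, cytotoxicity was read by CellTox Green fluorescence and viability by CellTiter-Glo luminescence (multiplexed), normalised to DMSO and benzethonium chloride controls. EC50 is the inflection point of the fitted dose-response curve (bottom asymptote free, so it can be relative for partial curves) and is censored at the highest tested concentration. Rows with DSS 0 (no meaningful response) were excluded.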

MFM-223 [2] = settings: 72 h
Procedure, shortened: (§2)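 Two sequential readouts followed a 72 h incubation of breast cancer cell lines with compound at 5 concentrations in 10-fold steps over a compound-specific 10,000-fold range: CellTox Green fluorescence (485/520 nm) for cell death, then CellTiter-Glo luminescence, after 10 min at room temperature, for viability. Each plate was normalised to 0.1 % DMSO and a positive kill control. Dose-response curves were fitted for EC50, censored at the top concentration.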

HCC1143 [3] = settings: 72 h
Procedure, shortened: as §2

DU-4475 [4] = settings: 72 h
Procedure, shortened: as §2

HDQ-P1 [5] = settings: 72 h
Procedure, shortened: as §2

HCC1599 [6] = settings: 72 h
Procedure, shortened: as §2

CAL-148 [7] = settings: 72 h
Procedure, shortened: as §2

DU-4475 [8] = settings: 72 h; remark: listed apart in the source
Procedure, shortened: (§3)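 Breast cancer cell lines in 20 µl suspension were seeded onto 384-well plates pre-loaded with compound dissolved in 5 µl medium, then incubated 72 h. For viability, 2.5 µl CellTiter-Blue was added for 2 h at 37 °C and fluorescence read at 560/590 nm. Each plate was normalised to vehicle and a positive kill control and checked by Z'-factor. EC50 comes from the fitted percent-inhibition dose-response curve, censored at the highest concentration; rows with zero drug sensitivity score were dropped.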

CAL-85-1 [9] = settings: 72 h
Procedure, shortened: as §3

CAL-51 [10] = settings: 72 h
Procedure, shortened: as §3

HDQ-P1 [11] = settings: 72 h; remark: listed apart in the source
Procedure, shortened: as §3

CAL-148 [12] = settings: 72 h; remark: listed apart in the source
Procedure, shortened: as §3

MDA-MB-453 [13] = experiment: normalised viability (% of control), CellTiter-Blue; higher = more viable cells (about 100 = DMSO control); settings: incubation time: 72 h
Procedure, shortened: (§4)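 Vehicle (100) and a positive kill control (0) anchored the normalisation of each plate, and Z'-factor was used for quality control. Breast cancer cell lines in 20 µl suspension were incubated 72 h over compound in 5 µl medium in 384-well plates, followed by CellTiter-Blue at 560/590 nm. The value is normalised viability at a single listed concentration of the series.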

BT-474 [14] = experiment: as above; settings: incubation time: 72 h
Procedure, shortened: as §4

HDQ-P1 [15] = experiment: as above; settings: incubation time: 72 h
Procedure, shortened: as §4

HCC1599 [16] = experiment: as above; settings: incubation time: 72 h
Procedure, shortened: as §4

MDA-MB-468 [17] = experiment: as above; settings: incubation time: 72 h
Procedure, shortened: as §4

CAL-148 [18] = experiment: as above; settings: incubation time: 72 h
Procedure, shortened: as §4

HCC1143 [19] = settings: 72 h; remark: listed apart in the source
Procedure: as §1

CAL-85-1 [20] = settings: 72 h; remark: listed apart in the source
Procedure: as §1

CAL-51 [21] = settings: 72 h; remark: listed apart in the source
Procedure: as §1

BT-474 [22] = settings: 72 h
Procedure: as §1

MDA-MB-468 [23] = settings: 72 h
Procedure: as §1

CAL-148 [24] = settings: 72 h; remark: listed apart in the source
Procedure: as §1

MFM-223 [25] = settings: 72 h; remark: listed apart in the source
Procedure, shortened: as §3

BT-549 = settings: 72 h
Procedure, shortened: as §3

HCC1143 [26] = settings: 72 h; remark: listed apart in the source
Procedure, shortened: as §3

CAL-120 = settings: 72 h
Procedure, shortened: as §3

MDA-MB-231 = settings: 72 h
Procedure, shortened: as §3

SK-BR-3 = settings: 72 h
Procedure, shortened: as §3

BT-474 [27] = settings: 72 h; remark: listed apart in the source
Procedure, shortened: as §3

Hs578T [28] = settings: 72 h; remark: listed apart in the source
Procedure, shortened: as §3

HCC1937 = settings: 72 h
Procedure, shortened: as §3

MDA-MB-436 [29] = settings: 72 h
Procedure, shortened: as §3

HCC1599 [30] = settings: 72 h; remark: listed apart in the source
Procedure, shortened: as §3

MDA-MB-468 [31] = settings: 72 h; remark: listed apart in the source
Procedure, shortened: as §3

MDA-MB-436 [32] = settings: 72 h; remark: listed apart in the source
Procedure: as §1

MDA-MB-453 [33] = settings: 72 h
Procedure: as §1

| Compound | EC50, CellTiter-Glo (MFM-223 [2]) | EC50, CellTiter-Glo (HCC1143 [3]) | EC50, CellTiter-Glo (DU-4475 [4]) | EC50, CellTiter-Glo (HCC1599 [6]) | EC50, CellTiter-Glo (CAL-148 [7]) | EC50, CellTiter-Blue viability (DU-4475 [8]) | EC50, CellTiter-Blue viability (CAL-85-1 [9]) | EC50, CellTiter-Blue viability (CAL-51 [10]) | EC50, CellTiter-Blue viability (HDQ-P1 [11]) | EC50, CellTiter-Blue viability (CAL-148 [12]) | normalised viability (MDA-MB-453 [13]; 30 nM) | normalised viability (BT-474 [14]; 1000 nM) | normalised viability (HDQ-P1 [15]; 30 nM) | normalised viability (HCC1599 [16]; 1000 nM) | normalised viability (MDA-MB-468 [17]; 1000 nM) | normalised viability (CAL-148 [18]; 30 nM) | EC50, CellTox Green (CAL-51 [21]) | EC50, CellTox Green (CAL-148 [24]) | EC50, CellTiter-Blue viability (MFM-223 [25]) | EC50, CellTiter-Blue viability (BT-549) | other results |
| --- | --- | --- | --- | --- | --- | --- | --- | --- | --- | --- | --- | --- | --- | --- | --- | --- | --- | --- | --- | --- | --- |
| Nc1ncnc2c1c(COc1cccc(Cl)c1)nn2C1CCOCC1 |  |  |  |  |  |  |  |  |  |  |  |  |  |  |  |  |  |  |  |  | EC50, CellTox Green (Hs578T [1]): > 10 µM |
| COc1ccc(-c2ccc3c(N4CCOC[C@@H]4C)nc(N4CCOC[C@@H]4C)nc3n2)cc1CO [AZD8055] | 0.0203 µM | 0.0404 µM | 0.229 µM | 0.152 µM | 0.0641 µM | 0.104 µM | 0.0347 µM | 0.0219 µM | 0.0238 µM | 0.0345 µM | 33.6% | 26.9% | 53.1% | 46.4% | 29.1% | 53% | 0.0052 µM | 0.0307 µM | 0.0187 µM | 0.061 µM | EC50, CellTiter-Glo (HDQ-P1 [5]): 0.0305 µM; EC50, CellTox Green (HCC1143 [19]): 1.47 µM; EC50, CellTox Green (CAL-85-1 [20]): > 10 µM; EC50, CellTox Green (BT-474 [22]): 9.15 µM; EC50, CellTox Green (MDA-MB-468 [23]): 6.94 µM; EC50, CellTiter-Blue viability (HCC1143 [26]): 0.0792 µM; EC50, CellTiter-Blue viability (CAL-120): 0.0454 µM; EC50, CellTiter-Blue viability (MDA-MB-231): 0.0474 µM; EC50, CellTiter-Blue viability (SK-BR-3): 0.0201 µM; EC50, CellTiter-Blue viability (BT-474 [27]): 0.0838 µM; EC50, CellTiter-Blue viability (Hs578T [28]): 0.0369 µM; EC50, CellTiter-Blue viability (HCC1937): 0.0154 µM; EC50, CellTiter-Blue viability (MDA-MB-436 [29]): 0.106 µM; EC50, CellTiter-Blue viability (HCC1599 [30]): 0.0628 µM; EC50, CellTiter-Blue viability (MDA-MB-468 [31]): 0.149 µM |
| C[C@]12CC[C@H](O)CC1=CC[C@@H]1[C@@H]2CC[C@]2(C)C(c3cccnc3)=CC[C@@H]12 [Abiraterone] |  |  |  |  |  |  |  |  |  |  |  |  |  |  |  |  |  |  |  |  | normalised viability (MDA-MB-453 [13]; 15 nM): 110%; normalised viability (BT-474 [14]; 500 nM): 116%; normalised viability (HDQ-P1 [15]; 15 nM): 108%; normalised viability (HCC1599 [16]; 500 nM): 385%; normalised viability (MDA-MB-468 [17]; 500 nM): 106%; normalised viability (CAL-148 [18]; 15 nM): 84.2% |
| CN(C)CCN1C(=O)c2cccc3cc(N)cc(c23)C1=O [Amonafide] | 7.4 µM | 3.33 µM | 3.3 µM | > 10 µM | 4.3 µM | 3.24 µM | 4.45 µM | 3.32 µM | 9.74 µM | 1.83 µM | 85.7% | 108% | 104% | 101% | 106% | 85.8% | 6.26 µM | 6.19 µM | 7.28 µM | 9.68 µM | EC50, CellTox Green (MDA-MB-436 [32]): 0.0444 µM; EC50, CellTiter-Blue viability (HCC1143 [26]): 3.71 µM; EC50, CellTiter-Blue viability (CAL-120): 3.37 µM; EC50, CellTiter-Blue viability (MDA-MB-231): 2.24 µM; EC50, CellTiter-Blue viability (SK-BR-3): 5.74 µM; EC50, CellTiter-Blue viability (BT-474 [27]): > 10 µM; EC50, CellTiter-Blue viability (Hs578T [28]): 9.38 µM; EC50, CellTiter-Blue viability (HCC1937): 1.11 µM; EC50, CellTiter-Blue viability (MDA-MB-436 [29]): 2.76 µM; EC50, CellTiter-Blue viability (HCC1599 [30]): 9.62 µM; EC50, CellTiter-Blue viability (MDA-MB-468 [31]): 6.67 µM |
| CC(C)(C#N)c1cc(Cn2cncn2)cc(C(C)(C)C#N)c1 [Anastrozole] |  |  |  |  |  |  |  |  |  |  | 91% | 101% | 89.2% | 88.3% | 101% | 96.8% |  |  |  |  | EC50, CellTox Green (MDA-MB-453 [33]): > 10 µM |
